Results taken from patent publication US20090012152A1, “Use of Tetramic Acid Derivatives for Controlling Insects from the Genus of the Plane Lice (Sternorrhyncha)” (Bayer CropScience Aktiengesellschaft, priority 2005, published 2009).

Key:
Assay type in all cases: in vivo
Dysmicoceus brevipes = test: Example 30a: guyabano tree treated against Dysmicoceus brevipes; settings: on fruits, g a.i./m crown height: Lorsban 180, I-4 48
Procedure: In three replications, in each case one guyabano tree is treated against Dysmicoceus brevipes. Here, the active compound Example (I-4) (240 SC), in a tank mix with 0.1% of rapeseed oil methyl ester (500 EW), is, at the stated application rate, tested against the commercial standard Lorsban (500 EC), at the stated application rate. The application is carried out using a motor-operated knapsack sprayer. Here, each plant is treated with spray liquor.
Evaluation is carried out 3, 7 and 14 days after the treatment by rating the kill in percent on the fruits.

Pulvinaria aurantii = test: Example 11: satsuma trees treated against Pulvinaria aurantii; settings: 41 days after treatment; live animals counted, Henderson and Tilton; satsuma tree; % a.i.: buprofezin 0.025, I-4 0.0144
Procedure: In three replications, in each case one about 4-year-old satsuma tree of the cultivar “Nankan 20” is treated against Pulvinaria aurantii. Here, the active compound Example (I-4) (240 SC) in a tank mix with 0.2% of rapeseed oil methyl ester (500 EW) at the stated application rate is tested against the commercial standard buprofezin at the stated application rate. The application is carried out using a motor-operated knapsack sprayer. Here, each plant is treated with 400 ml of spray liquor.
(§1) Evaluation is carried out before and 41 days after the treatment by counting the live animals. The efficacy in percent is then calculated according to Henderson and Tilton.

Ceroplastes rubens = test: Example 12: satsuma trees treated against Ceroplastes rubens; settings: 41 days after treatment; live animals counted, Henderson and Tilton; satsuma tree; % a.i.: buprofezin 0.025, I-4 0.0072
Procedure: In three replications, in each case one about 4-year-old satsuma tree of the cultivar “Nankan 20” is treated against Ceroplastes rubens. Here, the active compound Example (I-4) (240 SC) in a tank mix with 0.1% of rapeseed oil methyl ester (500 EW) at the stated application rate is tested against the commercial standard buprofezin (25 WP) at the stated application rate. The application is carried out using a motor-operated knapsack sprayer. Here, treatment is carried out using an application rate of 400 l of water/ha.
as §1

Myzus persicae = test: Example 46: head lettuce treated against Myzus persicae; settings: nymphs on plants, g a.i./ha: endosulfan 1120, I-4 48
Procedure: In four replications, plots of a size of about 33 m^2 with head lettuce of the cultivar “PIC 714” are treated against Aulacorthum solani, Macrosiphum euphorbiae and Myzus persicae. The application is carried out using a tractor sprayer. Here, the active compound Example (I-4) (240 SC), in a tank mix with 0.2% a.i. of rapeseed oil methyl ester (500 EW), is tested against the commercial standard endosulfan (360 EC), at the stated application rates. The application rate is 187 l of water/ha. Two treatments are carried out, at an interval of 22 days.
Evaluation is carried out 8, 22, 30 and 40 days after the first treatment by rating the kill of the nymphs on the plants.

Aleurothrixus floccosus = test: Example 39: orange trees treated against Aleurothrixus floccosus; settings: on branches, % a.i.: Juvinal 0.005, I-4 0.0072
Procedure: In three replications, about 55-year-old orange trees of the cultivar “Amargo” are treated against Aleurothrixus floccosus. The application is carried out using a motor-operated knapsack sprayer. Here, the active compound Example (I-4) (240 SC), in a tank mix with 0.1% a.i. of rapeseed oil methyl ester (500 EW), is tested at the stated application rate against the standard Juvinal (100 EC) at the stated application rates, applied once. The application rate is 2630 l of water/ha.
Evaluation is carried out 36, 51, 62 and 76 days after the treatment by rating the kill on the branches.

[1] = tested on: Pseudaulacaspis pentagona; test: Example 24: tea plants treated against Pseudaulacaspis pentagona; settings: crawlers on tea plants, % a.i.: Supracide EC 0.04, I-4 0.01
Procedure: In nine replications, about 7-week-old tea plants of the cultivar “Yakubita” are treated against Pseudaulacaspis pentagona. Here, the active compound Example (I-4) (200 SC) is tested against the commercial standard Supracide EC (400 EC) at the stated application rates. The application is carried out using a sprayer operated with pressurized air. Evaluation is carried out 16 and 35 days after the treatment by rating the kill of the crawlers on the plants.

Bemisia tabaci = test: Example 38: melons treated against Bemisia tabaci; settings: nymphs on leaves, g a.i./ha: Confidor 100, I-4 72
Procedure: In three replications, plots of a size of about 7.5 m^2 with melons of the cultivar “Piel DE Sapo” are treated against Bemisia tabaci. The application is carried out with a motor-operated knapsack sprayer. Here, the active compound Example (I-4) (240 SC), in a tank mix with 0.1% of a.i. of rapeseed oil methyl ester (500 EW), and the commercial standard Confidor (200 SL) are applied at the stated application rates. Two applications are carried out, at an interval of 7 days and at an application rate of 233 l of water/ha.
Evaluation is carried out 7 and 15 days after the second treatment by rating the kill of the animals (nymphs) on the leaves.

Rhodobium porosum = test: Example 55: strawberry plants treated against Rhodobium porosum; settings: nymphs on strawberry plants, g a.i./ha: Calypso 120, I-4 75
Procedure: In four replications, plots of a size of about 3 m^2 with 3-week-old strawberry plants are treated against Macrosiphum euphorbiae and Rhodobium porosum. The application is carried out using a knapsack sprayer operated with pressurized air. Here, the active compound Example (I-4) (150 OD) and the commercial standard Calypso (480 SC) are tested at the stated application rates. Here, the standard is sprayed as a tank mix with 0.03% of Motto (adjuvant). The application rate is 500 l of water/ha.
Evaluation is carried out 7 and 14 days after the second treatment by rating the kill of the nymphs on the plants.

SMILES: CCOC(=O)OC1=C(c2cc(C)ccc2C)C(=O)NC12CCC(OC)CC2 (stereo not drawn) [Example (I-4)]
- Kill (%) 3 days (Dysmicoceus brevipes; 3 days after treatment): 89.8%
- Kill (%) 7 days (Dysmicoceus brevipes; 7 days after treatment): 100%
- Kill (%) 14 days (Dysmicoceus brevipes; 14 days after treatment): 100%
- Effect (%) (Pulvinaria aurantii): 100%
- Effect (%) (Ceroplastes rubens): 98%
- Kill (%) 8 d (Myzus persicae; 8 d after first of two treatments): 95%
- Kill (%) 22 d (Myzus persicae; 22 d after first of two treatments): 100%
- Kill (%) 30 d (Myzus persicae; 30 d after first of two treatments): 88%
- Kill (%) 36 d (Aleurothrixus floccosus; 36 d after treatment): 81.1%
- Kill (%) 51 d (Aleurothrixus floccosus; 51 d after treatment): 81.5%
- Kill (%) 62 d (Aleurothrixus floccosus; 62 d after treatment): 92.1%
- Kill (%) 76 d (Aleurothrixus floccosus; 76 d after treatment): 92.9%
- Kill (%) 16 d ([1]; 16 d after treatment): 81.8%
- Kill (%) 35 d ([1]; 35 d after treatment): 75%
- Kill (%) 7 d (Bemisia tabaci; 7 d after second treatment): 85.3%
- Kill (%) 15 d (Bemisia tabaci; 15 d after second treatment): 95.5%
- Rhodobium porosum Kill (%) 7 d (Rhodobium porosum; 7 d after second treatment): 97%
- Rhodobium porosum Kill (%) 14 d (Rhodobium porosum; 14 d after second treatment): 96%
